Results taken from patent US9101640B2, “Use of Danshensu, Notoginsenoside R1 or their combination in preparation of medicaments for preventing and treating diseases caused by microcirculation disorder” (Tasly Pharmaceutical Group Co., Ltd., priority 2009, dated 2015).
“Also recorded” adds a separate entry of the source.

What was measured:
Type in all cases: in vivo
[1] = tested on: leukocytes rolling along the mesenteric venular walls; test: Counting of leukocytes rolling along inner walls of venules after I/R; conditions: rat mesenteric I/R
Description: (§1) The rats were anesthetized by intraperitoneal injection of pentobarbital sodium (30 mg/kg body weight (BW)). PE venous cannulas (#3) were cannulated into the right jugular of the rats and detained. The abdomen of each rat was incised in a length of 20-30 mm along the midline. The ileum near the ileocecal junctions was gently taken out and unfolded onto the object stage mounted with glass slides. The unfolded mesenteries were continuously dripped with Krebs-Ringer buffering solution at 37° C. The microcirculatory dynamics of the mesenteries was observed under white light (12V, 100 W) using an inverted biomicroscope (Diaphot TMD-2S, Nikon, Tokyo) placed in the thermostat at 37° C. Observation sites were selected under 20× object lens, and a video recording system with a time-displaying function was used to record what had been observed on S-VHS tape and preserved. […] Normal saline was administrated at 20 min before ischemia until the end of the observation by continuously intravenous drip via jugular at a dosage of 5 mg/kg/h. PE cannulas were used to ligate non-circulatory mesenteric arteries and veins, so as to observe the arteries and veins for 10 min, and then the ligation was lifted. Time was adjusted to zero and the microcirculatory dynamics under the same visual field was continuously observed for 60 min.
(§2) DLA was administrated at 20 min before ischemia until the end of the observation by continuously intravenous drip via jugular at a dosage of 5 mg/kg/h.
(§3) R1 was administrated at 20 min before ischemia until the end of the observation by continuously intravenous drip via jugular at a dosage of 5 mg/kg/h.
(§4) The combination of DLA and R1 in a weight ratio of 4:1 was administrated at 20 min before ischemia until the end of the observation by continuously intravenous drip via jugular at a dosage of 5 mg/kg/h.
(§5) The combination of DLA and R1 in a weight ratio of 1:1 was administrated at 20 min before ischemia until the end of the observation by continuously intravenous drip via jugular at a dosage of 5 mg/kg/h. […]
(§6) Wherein, 6 rats in each group were taken out, these rats were used for observing the following aspects: the venular diameters; leukocytes rolling, adhesion, and emigration and DHR fluorescence intensities of the venular walls. […]
(§7) Microcirculatory dynamics was continuously recorded using an inverted biomicroscope […] recording system (CC-090, Flovel, Tokyo) and SIT fluorescent camera (C-2400-08, Hamamatsu Photonics, Hamamatsu).
The leukocytes roiling along the inner walls of the venules in a length of 200 μm within 10 s was counted from the replayed images at the following time points: before ischemia, and 1 min, 10 min, 20 min, 30 min, 40 min, 50 min and 60 min after the beginning of the reperfusion.

[2] = tested on: leukocytes adhered to the mesenteric venules; test: Counting of leukocytes adhered to venular walls after I/R; conditions: rat mesenteric I/R
Description: as §1, §2, §3, §4, §5, §6, §7
The leukocytes adhered to the venules which stayed at one site on the venular walls for at least 30 s the adherent leukocytes) was counted from the replayed images at the following time points: before ischemia, and 1 min, 10 min, 20 min, 30 min, 40 min, 50 min and 60 min after the beginning of the reperfusion. […]

[3] = tested on: leukocytes emigrated from the mesenteric venules; test: Counting of leukocytes emigrated from venules after I/R; conditions: rat mesenteric I/R
Description: as §1, §2, §3, §4, §5, §6, §7
The number of the leukocytes emigrated from the mesenteric venules was observed and counted from the replayed images at the following time points: before ischemia, and 1 min, 10 min, 20 min, 30 min, 40 min, 50 min and 60 min after the beginning of the reperfusion.

[4] = tested on: peroxides in the mesenteric venular walls; test: DHR fluorescence intensities of venular walls (production of peroxides) after I/R; conditions: rat mesenteric I/R
Description: The rats were anesthetized by intraperitoneal injection of pentobarbital sodium (30 mg/kg body weight (BW)). PE venous cannulas (#3) were cannulated into the right jugular of the rats and detained. The abdomen of each rat was incised in a length of 20-30 mm along the midline. The ileum near the ileocecal junctions was gently taken out and unfolded onto the object stage mounted with glass slides. The unfolded mesenteries were continuously dripped with Krebs-Ringer buffering solution at 37° C. The microcirculatory dynamics of the mesenteries was observed under white light (12V, 100 W) using an inverted biomicroscope (Diaphot TMD-2S, Nikon, Tokyo) placed in the thermostat at 37° C. Observation sites were selected under 20× object lens, and a video recording system with a time-displaying function was used to record what had been observed on S-VHS tape and preserved. […] PE cannulas were used to ligate non-circulatory mesenteric arteries and veins, so as to observe the arteries and veins for 10 min, and then the ligation was lifted. Time was adjusted to zero and the microcirculatory dynamics under the same visual field was continuously observed for 60 min. […]
(§8) DLA was administrated at 10 min after I/R until the end of the observation by continuously intravenous drip via jugular at a dosage of 5 mg/kg/h. […]
as §6, §7
The H2O2-sensitive fluorescent probes DHR ([…]) were continuously dripped onto the surfaces of the rat's mesenteries to be observed. An inverted fluorescence microscope (DM-IRB, Leica, Germany) with an excitation wavelength at 455 nm and a mercury lamp as an excitation source (100 W) was used. The images were recorded with a CD camera at the following time points: before ischemia, and 1 min, 10 min, 20 min, 30 min, 40 min, 50 min and 60 min after the beginning of the reperfusion. The fluorescence intensities of the venular wall and the extravascular interstitial substance were measured with a Image-Pro Plus 5.0 software. The […] value between the fluorescence intensity of the venular wall and that of the extravascular interstitial substance before ischemia was taken as a baseline. The ratio of the changing value at each time point to the baseline were calculated, which was used to indicate the changing rate of the DHR fluorescence intensities of the rat's mesenteric venular walls.

[5] = tested on: plasma albumin leakage from the mesenteric venules; test: FITC-labeled albumin leakage from venules after I/R; conditions: rat mesenteric I/R; for inhibition of the plasma albumin leakage from the venules after reperfusion: post-administration, 5 mg/kg/h continuous i.v. drip from 20 min after ischemia (DLA: 10 min after I/R); for inhibition of the plasma albumin leakage from the venules after I/R: pre-administration, 5 mg/kg/h continuous i.v. drip from 20 min before ischemia
Description: as §1, §2, §3, §4
The combination of DLA and R1 in a weight ratio of 1:1 was administrated at 20 min before ischemia until the end of the observation by continuously intravenous drip via jugular at a dosage of 5 mg/kg/h.
The combination of DLA and R1 in a weight ratio of 1:4 was administrated at 20 min before ischemia until the end of the observation by continuously intravenous drip via jugular at a dosage of 5 mg/kg/h.
as §8, §6
Microcirculatory dynamics was continuously recorded using an inverted biomicroscope […] recording system (CC-090, Flovel, Tokyo) and SIT fluorescent camera (C-2400-08, Hamamatsu Photonics, Hamamatsu). […]

[6] = pre-administration, 5 mg/kg/h continuous i.v. drip from 20 min before ischemia, 5 mg/kg
[7] = post-administration, 5 mg/kg/h continuous i.v. drip from 20 min after ischemia (DLA: 10 min after I/R)
[8] = pre-administration, 5 mg/kg/h continuous i.v. drip from 20 min before ischemia

Row | SMILES | inhibition of leukocytes rolling along the mesenteric venular walls caused by I/R ([1]; post-administration, 5 mg/kg/h continuous i.v. drip from 20 min after ischemia (DLA: 10 min after I/R), 5 mg/kg) | inhibition of leukocytes rolling along the mesenteric venular walls caused by I/R [1, 6] | inhibition of the increase in the number of leukocytes adhered to the mesenteric venules caused by I/R [2, 7] | inhibition of the increase in the number of leukocytes adhered to the mesenteric venules caused by I/R [2, 8] | inhibition of the emigration of leukocytes from the mesenteric venules after I/R [3, 7] | inhibition of the emigration of leukocytes from the mesenteric venules after I/R [3, 8] | inhibition of the production of peroxides in the mesenteric venular walls after I/R (DHR fluorescence) [4, 7] | inhibition of the production of peroxides in the mesenteric venular walls after I/R (DHR fluorescence) [4, 8] | inhibition of the plasma albumin leakage from the venules after reperfusion [5] | inhibition of the plasma albumin leakage from the venules after I/R [5] | inhibition of leukocytes rolling along the mesenteric venular walls caused by I/R [1, 7]
1 | CC(C)=CCC[C@](C)(O[C@@H]1O[C@H](CO)[C@@H](O)[C@H](O)[C@H]1O)[C@H]1CC[C@]2(C)[C@@H]1[C@H](O)C[C@@H]1[C@@]3(C)CC[C@H](O)C(C)(C)[C@@H]3[C@@H](O[C@@H]3O[C@H](CO)[C@@H](O)[C@H](O)[C@H]3O[C@@H]3OC[C@@H](O)[C@H](O)[C@H]3O)C[C@]12C [R1, Notoginsenoside R1] | had no significant inhibitory effects; also recorded: have no significant inhibitory effects | had no significant inhibitory effects; also recorded: have no significant inhibitory effects | had significant inhibitory effects; also recorded: can inhibit | had significant inhibitory effects; also recorded: can inhibit | had significant inhibitory effects; also recorded: can inhibit | had significant inhibitory effects; also recorded: can inhibit | had no significant inhibitory effects; also recorded: has no inhibitory effects | had no significant inhibitory effects; also recorded: has no inhibitory effects | had significant inhibitory effects; also recorded: can inhibit | had significant inhibitory effects; also recorded: can inhibit | 
2 | O=C(O)C(O)Cc1ccc(O)c(O)c1 (centres unmarked) [DLA, 3,4-dihydroxyphenyl lactic acid] |  | can apparently suppress; also recorded: can inhibit | had significant inhibitory effects; also recorded: has the same effects as those of the pre-administration | had significant inhibitory effects; also recorded: can inhibit | had significant inhibitory effects; also recorded: has the same effects as those of the pre-administration | had significant inhibitory effects; also recorded: can inhibit | had significant inhibitory effects; also recorded: has the same effects as those of the pre-administration | had significant inhibitory effects; also recorded: can inhibit | had significant inhibitory effects; also recorded: has the same effects as those of the pre-administration | had significant inhibitory effects; also recorded: can inhibit | has the same effects as those of the pre-administration
